We go through 25 compounds from patent US20210246115A1 (Bioimics AB, priority 2017, published 2021).

Experiment [1] deals with Staphylococcus aureus subsp. aureus (ATCC29213). In words: MIC, broth microdilution (CLSI), Staphylococcus aureus ATCC29213. Format: cell-based. The conditions noted are these: for MIC: Staphylococcus aureus; for S. aureus ATCC 29213 MIC: Table XIII, hydrochloride salt.
The subject of experiment [2] is E. coli RNase P RNA, M1 RNA. The experiment is described as follows: Inhibition of bacterial RNase P activity, IC50 determination (cleavage of pATSerUG by M1 RNA). Format: biochemical. As to conditions: NI: No inhibition.
Experiment [3] relates to Escherichia coli (ATCC25922). In words: MIC, broth microdilution (CLSI), Escherichia coli. As to conditions: for MIC: Escherichia coli, ATCC25922, read-out: E. coli ATCC 25922 MIC, Table XIII. For orientation: Dilution methods test growth across graded concentrations, often in twofold steps.
The subject of experiment [4] is Staphylococcus aureus (ATCC25923). In words: MIC, broth microdilution (CLSI), Staphylococcus aureus ATCC25923. As to conditions: Staphylococcus aureus, ATCC25923, read-out: S. aureus ATCC 25923 MIC.
Experimental: Initial minimal inhibitory concentration (MIC) tests were made on two bacterial strains: • Escherichia coli (ATCC25922) • Staphylococcus aureus (ATCC25923).
MIC values were determined using the standard broth microdilution procedure based on the guidelines by the Clinical and Laboratory Standards Institute (CLSI). Briefly, the compounds were dissolved in DMSO to 10 mM. They were diluted in cation-adjusted Mueller-Hinton broth (CAMHB) to four times the highest concentration tested. A serial two-fold dilution in CAMHB was done in microdilution plates. The inoculum of bacterial strain to be tested was prepared by making a suspension of colonies from an 18 to 24 hours old plate in CAMHB. The inoculum was diluted so that, after inoculation, each well contained approximately 5×10^5 CFU/mL. To a volume of 50 μl compound in CA 3 an equal volume of inoculum was added. The tray was sealed in a plastic bag and incubated at 35° C. for 16 to 20 hours. To aid in the detection of growth the dye resazurin was added to a final concentration 0.001% and incubated at room temperature for 1 h. Reduction of resazurin, and therefore bacterial growth, was seen as a change from blue to pink.
Setting [5] is: ATCC29213, Table XIII, read-out: S. aureus ATCC 29213 MIC.
Setting [6] is: ATCC29213, read-out: S. aureus ATCC 29213 MIC, Table XIII.

As usually defined, the MIC is the smallest concentration in the dilution series that meets the test's criterion for growth inhibition. Usually IC50 stands for the point on the concentration scale where inhibition reaches its midpoint.

Molecules are shown by their SMILES. ≈ marks a conversion by molar mass, not a printed value. Structures can show the parent of a compound that is named as a salt. Where two headings read alike, the source gives them in different places.

In the case of `Cc1cccc(C(CC(=O)NC2CCNCC2)c2cn(CC3CCCCC3)c3ccc(C(=O)O)cc23)c1.Cl` (centres unmarked) [Compound 297, 1-(cyclohexylmethyl)-3-(3-oxo-3-(piperidin-4-ylamino)-1-(m-tolyl)propyl)-1H-indole-5-carboxylic acid hydrochloride salt], the figures for the MIC in experiment [1] (setting [5]), in experiment [3] and in experiment [4] were 32 µg/mL, > 128 µg/mL and 34 µg/mL, respectively. In experiment [2], this compound gave an IC50 of 38 µM.
For `Cc1cccc(C(CCN[C@H]2CC[C@H](N)CC2)c2cn(CC3CCCC3)c3ccccc23)c1` (stereo partly drawn) [Compound 164, (1R,4R)-N1-(3-(1-(cyclopentylmethyl)-1H-indol-3-yl)-3-(m-tolyl)propyl)cyclohexane-1,4-diamine hydrochloride salt] the same measures were 8 µg/mL, 8 µg/mL, 4 µg/mL and 9.6 µM.
Consider `Cl.N[C@H]1CC[C@H](NC(=O)CC(c2cncc3ccccc23)c2cn(CC3CCCCC3)c3ccccc23)CC1` (stereo partly drawn) [Compound 191, N-((1R,4R)-4-aminocyclohexyl)-3-(1-(cyclohexylmethyl)-1H-indol-3-yl)-3-(isoquinolin-4-yl)propanamide hydrochloride salt], for which the figures for the MIC in experiment [1] (setting [5]), in experiment [3] and in experiment [4] were 8 µg/mL, 8 µg/mL and 5 µg/mL, respectively. Moreover, in experiment [2], the IC50 worked out at 7 µM.
`Cc1cccc(C(CC(=O)NC2CCNCC2)c2cn(CCC3CCCCC3)c3ccccc23)c1.Cl` (centres unmarked) [Compound 109, 3-(1-(2-cyclohexylethyl)-1H-indol-3-yl)-N-(piperidin-4-yl)-3-(m-tolyl)propanamide hydrochloride salt]: the MIC in experiment [1] (setting [5]) is 4 µg/mL; in experiment [3], 128 µg/mL; in experiment [4], 4 µg/mL. In experiment [2], this compound returned an IC50 of 3.7 µM.
Turning to `Cl.O=C(CCC1C(=O)N(CC2CCCCC2)c2ccccc21)NC1CCNCC1` (centres unmarked) [Compound 275, 3-(1-(cyclohexylmethyl)-2-oxoindolin-3-yl)-N-(piperidin-4-yl) propanamide hydrochloride salt], the minimum inhibitory concentration (MIC) in experiment [1] (setting [5]) was > 128 µg/mL; in experiment [3] it was > 128 µg/mL; in experiment [4] it was > 512 µg/mL. Besides, the half-maximal inhibitory concentration (IC50) in experiment [2] was 79 µM.
For the compound `Cc1cccc(C(CCNCC2CNCCO2)c2cn(CC3CCCCC3)c3ccc(Br)cc23)c1.Cl` (centres unmarked) [Compound 289, 3-(5-bromo-1-(cyclohexylmethyl)-1H-indol-3-yl)-N-(morpholin-2-ylmethyl)-3-(m-tolyl)propan-1-amine hydrochloride salt], the MIC in experiment [1] (setting [5]) was 64 µg/mL; in experiment [3], 16 µg/mL; in experiment [4], 2 µg/mL. This compound also returned an IC50 in experiment [2] of 15 µM.
With `NCCCNC1CCCC(c2cn(C3CCCCC3)c3ccc(C4CCCCC4)cc23)C1` (centres unmarked) [Compound 420, N1-(3-(1,5-dicyclohexyl-1H-indol-3-yl)cyclohexyl)propane-1,3-diamine], the MIC in experiment [1] (setting [5]) and in experiment [3] was 2 µg/mL (≈ 4.59 µM) in each case. The midpoint of inhibition in experiment [2], the IC50, lay at 8.4 µM.
With `Cl.c1ccc(-c2ccc(CNCCc3c[nH]c4ccccc34)cc2)cc1` [Compound 24, N-([1,1′-biphenyl]-4-ylmethyl)-2-(1H-indol-3-yl)ethan-1-amine hydrochloride salt], the MIC in experiment [1] (setting [5]) turned out to be 6 µg/mL; in experiment [3], 46 µg/mL; in experiment [4], 6 µg/mL.
With `Cl.Cl.NCCCNCCC(c1ccccc1)c1cn(C2CCCCC2)c2ccccc12` (centres unmarked) [Compound 343, N1-(3-(1-cyclohexyl-1H-indol-3-yl)-3-phenylpropyl) propane-1,3-diamine hydrochloride salt], the MIC worked out at 8 µg/mL in experiment [1] (setting [5]) and 4 µg/mL in experiment [3]. Further, in experiment [2], the IC50 was 64 µM.
`NCCCNCCC(c1cccc(OC(F)(F)F)c1)c1cn(C2CCCCC2)c2ccc(C(N)=O)cc12` (centres unmarked) [Compound 376, 3-(3-((3-aminopropyl)amino)-1-(3-(trifluoromethoxy)phenyl)propyl)-1-cyclohexyl-1H-indole-5-carboxamide]: the MIC in experiment [1] (setting [5]) is 16 µg/mL (≈ 31 µM); in experiment [3], 32 µg/mL (≈ 61.9 µM). Also, the IC50 in experiment [2] came to 40 µM.
For `Cc1cccc(-c2ccc3c(c2)c(CCCNCCCN)cn3CC2CCCCC2)c1.Cl.Cl` [Compound 375, N1-(3-(1-(cyclohexylmethyl)-5-(m-tolyl)-1H-indol-3-yl)propyl)propane-1,3-diamine hydrochloride salt] the same measures were 4 µg/mL, 4 µg/mL and 4.7 µM.
The matching figures for `Cc1cccc(C(CCN[C@H]2CC[C@H](NC(N)=O)CC2)c2cn(C3CCCCC3)c3ccccc23)c1` (stereo partly drawn) [Compound 377, 1-((1R,4R)-4-((3-(1-cyclohexyl-1H-indol-3-yl)-3-(m-tolyl)propyl)amino)cyclohexyl) urea]: 16 µg/mL (≈ 32.9 µM), > 128 µg/mL and 130 µM.
As to `NC1CCC(NCCC(c2ccc(F)c(F)c2)c2cn(CC3CCCCC3)c3ccccc23)CC1` [Compound 161, (1S,4S)-N1-(3-(1-(cyclohexylmethyl)-1H-indol-3-yl)-3-(3,4-difluorophenyl)propyl) cyclohexane-1,4-diamine hydrochloride salt], the MIC in experiment [1] (setting [5]), in experiment [3] and in experiment [4] was 2 µg/mL throughout. The IC50 in experiment [2] worked out at 12 µM.
For `Cl.Cl.NCCCNCCCc1cn(C2CCCCC2)c2ccc(C3CCCCC3)cc12` [Compound 399, N1-(3-(1,5-dicyclohexyl-1H-indol-3-yl)propyl)propane-1,3-diamine hydrochloride salt], the MIC in experiment [1] (setting [5]) and in experiment [3] was 4 µg/mL each time. In experiment [2], this compound registered an IC50 of 6.3 µM.
For `Cc1cccc(C(CCNC2CCNCC2)c2cn(CC3CCCCC3)c3ccc([N+](=O)[O-])cc23)c1` (centres unmarked) [Compound 428, N-(3-(1-(cyclohexylmethyl)-5-nitro-1H-indol-3-yl)-3-(m-tolyl)propyl)piperidin-4-amine hydrochloride salt], the MIC in experiment [1] (setting [6]) was determined as 4 µg/mL; in experiment [3], 32 µg/mL. This compound showed an IC50 in experiment [2] of 15 µM.
Consider `Cc1cccc(C(CCNCCCN)c2cn(C3CCCCC3)c3ccc(C#N)cc23)c1.Cl.Cl` (centres unmarked) [Compound 379, 3-(3-((3-aminopropyl)amino)-1-(m-tolyl)propyl)-1-cyclohexyl-1H-indole-5-carbonitrile hydrochloride salt], for which the MIC in experiment [1] (setting [5]) and in experiment [3] was 8 µg/mL in each case. In addition, in experiment [2], the IC50 is 34 µM.
Consider `Cc1cccc(C(CCNCC2CNCCO2)c2cn(CC3CCCCC3)c3ccccc23)c1` (centres unmarked) [Compound 288, 3-(1-(cyclohexylmethyl)-1H-indol-3-yl)-N-(morpholin-2-ylmethyl)-3-(m-tolyl)propan-1-amine hydrochloride salt], for which the results for the MIC in experiment [1] (setting [6]), in experiment [3] and in experiment [4] were 128 µg/mL, 4 µg/mL and 4 µg/mL, respectively. This compound gave an IC50 in experiment [2] of 52 µM.
On to `Cc1cccc(C(CCNCCCN)c2cn(C3CCCCC3)c3ccccc23)c1` (centres unmarked) [Compound 358, N1-(3-(1-cyclohexyl-1H-indol-3-yl)-3-(m-tolyl)propyl)propane-1,3-diamine], for which the results for the MIC in experiment [1] (setting [5]) and in experiment [3] were 8 µg/mL (≈ 19.8 µM) and 4 µg/mL (≈ 9.91 µM), respectively. The compound further showed an IC50 in experiment [2] of 38 µM.
With `CCC(CC)C(CCNCCCN)c1cn(C2CCCCC2)c2ccccc12.Cl.Cl` (centres unmarked) [Compound 416, N1-(3-(1-cyclohexyl-1H-indol-3-yl)-4-ethylhexyl)propane-1,3-diamine hydrochloride salt], the minimum inhibitory concentration (MIC) in experiment [1] (setting [5]) came to 4 µg/mL; in experiment [3], 2 µg/mL. In addition, it took 26 µM to reach half-maximal inhibition in experiment [2] (IC50).
On to `Cc1cccc(C(CCNCCCN)c2cn(C3CC4CCC3C4)c3ccccc23)c1.Cl.Cl` (centres unmarked) [Compound 341, N1-(3-(1-(bicyclo[2.2.1]heptan-2-yl)-1H-indol-3-yl)-3-(m-tolyl)propyl)propane-1,3-diamine hydrochloride salt], for which the MIC in experiment [1] (setting [5]) turned out to be 8 µg/mL; in experiment [3] it was 4 µg/mL. In experiment [2], this compound showed an IC50 of 32 µM.
Take `Cc1cccc(C(CCNC2CCC(N)CC2)c2cn(C3CCCCC3)c3ccccc23)c1` [Compound 395, (1S,4S)- -N1-(3-(1-cyclohexyl-1H-indol-3-yl)-3-(m-tolyl)propyl) cyclohexane-1,4-diamine hydrochloride salt]: the “S. aureus ATCC 29213 MIC” value in experiment [1] is 1 µg/mL. Besides, the IC50 in experiment [2] (hydrochloride salt) was found to be 8.2 µM. The “E. coli ATCC 25922 MIC” value in experiment [3] (Table XIII, hydrochloride salt) was 8 µg/mL.
Turning to `Cc1cccc(C(CCNCCCNS(=O)(=O)c2ccc(F)cc2)c2cn(C3CCCCC3)c3ccccc23)c1` (centres unmarked) [Compound 365, N-(3-((3-(1-cyclohexyl-1H-indol-3-yl)-3-(m-tolyl)propyl)amino)propyl)-4-fluorobenzenesulfonamide], the MIC in experiment [1] (setting [5]) is 4 µg/mL (≈ 7.12 µM); in experiment [3] it was > 128 µg/mL. The midpoint of inhibition in experiment [2], the IC50, lay at 21 µM.
As to `Cc1cccc(C(CCNC2CCC(N)CC2)c2cn(C3CCCCC3)c3ccccc23)c1` (centres unmarked) [Compound 308, N1-(3-(1-cyclohexyl-1H-indol-3-yl)-3-(m-tolyl)propyl)cyclohexane-1,4-diamine hydrochloride salt], the “S. aureus ATCC 29213 MIC” value in experiment [1] turned out to be 4 µg/mL. In addition, in experiment [2] (hydrochloride salt), the IC50 is 29 µM. In addition, the MIC in experiment [3] amounted to 4 µg/mL.
For the compound `FC(F)(F)Oc1cccc(-c2ccc3c(c2)c(C2CCCC(NC4CCNCC4)C2)cn3C2CCCCC2)c1` (centres unmarked) [Compound 403, N-(3-(1-cyclohexyl-5-(3-(trifluoromethoxy)phenyl)-1H-indol-3-yl)cyclohexyl) piperidin-4-amine hydrochloride salt], the MIC in experiment [1] (setting [6]) was 4 µg/mL; in experiment [3] it was 16 µg/mL. Further, the midpoint of inhibition in experiment [2], the IC50, lay at 7 µM.
For `N#Cc1ccc2c(C(CCNC3CCNCC3)c3cccc(OC(F)(F)F)c3)cn(C3CCCCC3)c2c1` (centres unmarked) [Compound 414, 1-cyclohexyl-3-(3-(piperidin-4-ylamino)-1-(3-(trifluoromethoxy)phenyl)propyl)-1H-indole-6-carbonitrile hydrochloride salt] the same measures were 4 µg/mL, 8 µg/mL and 16 µM.
